Data taken from patent US6534546B1 (Chugai Seiyaku Kabushiki Kaisha, priority 1994, dated 2003).
pIC50: −log10 of the molar value. Where a name gives a salt, the structure may show the parent alone. Read-outs that look alike come from different tables or passages of the source.

Columns and labels:
[1] = target: iNOS (Type 2) (Rattus norvegicus, UniProt Q06518); assay: biochemical; format: biochemical
[2] = target: T1, E-cNOS (Type 3) (Bos taurus, UniProt P29473); assay: biochemical
T1 construct: the resulting supernatant was used as the crude enzyme sample of E-cNOS; endogenous in cells; host or cells: CPAE (cow pulmonary arterial endothelium cells), 1% Triton X-100 extract, 100,000 x g supernatant
Experimental: The crude enzyme sample of E-cNOS was prepared by the following procedure. A cow pulmonary arterial endothielium cell (CPAE) was cultured in a MEM medium containing 20% FBS. […] A suitable amount of Ca- and Mg-free phosphate buffer (pH 7.4) was added to the precipitating cells and they were centrifuged at 1,000 rpm for 10 min. The same step was repeated to wash the cells which, upon addition of 50 mM Tris-HCl (pH 7.4) containing 1% Triton X-100 and 1 mM DTT, were left to stand in ice for 1 h. Subsequently, the mixture was homogenized for 3 min and kept in ice for 30 min with occasional stirring. Finally, the mixture was centrifuged at 100,000×g for 60 min and the resulting supernatant was used as the crude enzyme sample of E-cNOS.
The reaction was started by addition of L-[^3H]arginine and following incubation at 37° C. for 10 min, the reaction was terminated by addition of 2 ml of 50 mM Tris-HCl (pH 5.5) containing 1 mM EDTA and placing the mixture on ice. The reaction solution was passed through a cation-exchange resin column (Dowex AG50WX-8, Na^+ form, 3.2 ml) to separate the reaction product L-[^3H]citrulline from the unreacted residual substrate L-[^3H]arginine. The eluate was combined with another eluate resulting from the passage of a given amount of distilled water through the column and put into a minivial for recovery of L-[^3H]citrulline. Thereafter, a scintillation fluid was added and the contained radioactivity was measured with a liquid scintillation counter to determine the amount of L-[^3H]citrulline.
The activity of N-cNOS or E-cNOS was determined by subtracting the activity as detected in the absence of CaCl2 and calmodulin from the activity as detected in the presence of CaCl2 and calmodulin. […] The protein concentration of each crude enzyme sample was determined with a micro-assay kit of Biorad Co. Each experiment was conducted in a duplicate.

[3] = tested on: focal cerebral ischemia in rats; details: administered after 3 hours of ischemia; Zhang et al. 1995; cited from earlier work
[4] = tested on: rat model of focal cerebral ischemia (permanent MCA occlusion); assay: Brain edema (brain water content, dry-wet method) after 48-h occlusion of the left middle cerebral artery; format: in vivo; details: 48 hours after MCA occlusion
Experimental: An experiment was conducted to evaluate the effectiveness of a compound within the scope of the invention using a rat model of focal cerebral ischemia. Such models were prepared by occluding the left middle cerebral artery (MCA) in accordance with the method already reported by the present inventors (Nagafuji et al., Neurosci. Lett. 147, 159-162, 1992; Nagafuji et al., in Brain Edema IX (Ito et al., eds.) 60, pp. 285-288, 1994, Springer-Verlag; Nagafuji et al., Neuroreport 6, 1541-1545, 1995). […]
The water content in the brain which was an index of brain edema formation was measured by the dry-wet method (Nagafuji et al., Neurosci. Lett. 147, 159-162, 1992) in the following manner. Forty-eight hours after the MCA occlusion, the rats were decapitated and both the right and left cerebral hemispheres were extracted from each animal within 60 seconds; the wet weight of the brain tissue of each hemisphere was measured with a chemical balance within 90 seconds. Thereafter, the hemispheres were dried in an oven at 105° C. for 3 days and their dry weights were measured. The water content in the brain was determined by the following forumula: (wet weight−dry weight)/(wet weight)×100 (%). […]

[5] = tested on: rat model of focal cerebral ischemia (temporary MCA occlusion); assay: Brain infarct volume (TTC staining) after 3-h MCA occlusion and 24-h reperfusion; format: in vivo
[6] = tested on: rat model of focal cerebral ischemia; details: Nagafuji et al. 1992; cited from earlier work
[7] = tested on: gerbil model of forebrain ischemia; details: Nagafuji et al. 1993; cited from earlier work
[8] = mean of one to four independent experiments, crude enzyme, 100 nM L-[3H]arginine, without CaCl2 and calmodulin, read-out: IC50 value, iNOS (Type 2)
[9] = mean of one to four independent experiments, crude enzyme, 100 nM L-[3H]arginine, read-out: IC50 value, E-cNOS (Type 3)
[10] = conclusion from Tables 49, 50 and 51

Sequence of iNOS (Type 2) (Q06518 whole entry, looked up): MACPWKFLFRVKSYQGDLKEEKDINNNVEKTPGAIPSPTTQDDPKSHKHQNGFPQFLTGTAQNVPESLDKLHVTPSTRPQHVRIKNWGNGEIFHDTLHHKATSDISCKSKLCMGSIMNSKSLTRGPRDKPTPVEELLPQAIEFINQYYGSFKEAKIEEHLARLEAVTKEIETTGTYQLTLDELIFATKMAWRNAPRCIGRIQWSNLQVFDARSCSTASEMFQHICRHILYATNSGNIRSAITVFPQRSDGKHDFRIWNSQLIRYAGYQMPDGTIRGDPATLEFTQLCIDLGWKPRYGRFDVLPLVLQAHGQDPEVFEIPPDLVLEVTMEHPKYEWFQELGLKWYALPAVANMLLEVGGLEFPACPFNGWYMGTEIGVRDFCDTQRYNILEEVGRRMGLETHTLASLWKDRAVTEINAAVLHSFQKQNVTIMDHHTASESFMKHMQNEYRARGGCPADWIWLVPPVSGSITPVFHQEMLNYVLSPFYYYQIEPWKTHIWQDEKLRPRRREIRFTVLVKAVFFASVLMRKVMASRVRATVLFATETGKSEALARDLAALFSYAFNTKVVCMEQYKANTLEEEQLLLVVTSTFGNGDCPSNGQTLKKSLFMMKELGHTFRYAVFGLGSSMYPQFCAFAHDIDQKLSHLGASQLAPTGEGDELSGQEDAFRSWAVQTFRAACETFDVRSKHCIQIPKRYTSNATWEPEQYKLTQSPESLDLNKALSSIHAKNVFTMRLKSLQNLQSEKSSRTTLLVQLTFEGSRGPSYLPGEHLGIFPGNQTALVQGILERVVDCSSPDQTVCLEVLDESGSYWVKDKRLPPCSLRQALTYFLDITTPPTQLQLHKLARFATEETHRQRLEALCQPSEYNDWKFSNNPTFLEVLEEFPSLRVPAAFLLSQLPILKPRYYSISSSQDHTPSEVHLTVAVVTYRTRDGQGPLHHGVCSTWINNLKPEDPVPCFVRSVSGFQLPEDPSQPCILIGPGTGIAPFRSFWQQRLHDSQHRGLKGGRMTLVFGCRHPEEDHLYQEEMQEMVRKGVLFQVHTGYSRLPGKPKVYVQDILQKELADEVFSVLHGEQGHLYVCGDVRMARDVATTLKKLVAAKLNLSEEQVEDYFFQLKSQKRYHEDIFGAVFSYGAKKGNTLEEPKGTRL
T1 sequence (P29473 2-1205): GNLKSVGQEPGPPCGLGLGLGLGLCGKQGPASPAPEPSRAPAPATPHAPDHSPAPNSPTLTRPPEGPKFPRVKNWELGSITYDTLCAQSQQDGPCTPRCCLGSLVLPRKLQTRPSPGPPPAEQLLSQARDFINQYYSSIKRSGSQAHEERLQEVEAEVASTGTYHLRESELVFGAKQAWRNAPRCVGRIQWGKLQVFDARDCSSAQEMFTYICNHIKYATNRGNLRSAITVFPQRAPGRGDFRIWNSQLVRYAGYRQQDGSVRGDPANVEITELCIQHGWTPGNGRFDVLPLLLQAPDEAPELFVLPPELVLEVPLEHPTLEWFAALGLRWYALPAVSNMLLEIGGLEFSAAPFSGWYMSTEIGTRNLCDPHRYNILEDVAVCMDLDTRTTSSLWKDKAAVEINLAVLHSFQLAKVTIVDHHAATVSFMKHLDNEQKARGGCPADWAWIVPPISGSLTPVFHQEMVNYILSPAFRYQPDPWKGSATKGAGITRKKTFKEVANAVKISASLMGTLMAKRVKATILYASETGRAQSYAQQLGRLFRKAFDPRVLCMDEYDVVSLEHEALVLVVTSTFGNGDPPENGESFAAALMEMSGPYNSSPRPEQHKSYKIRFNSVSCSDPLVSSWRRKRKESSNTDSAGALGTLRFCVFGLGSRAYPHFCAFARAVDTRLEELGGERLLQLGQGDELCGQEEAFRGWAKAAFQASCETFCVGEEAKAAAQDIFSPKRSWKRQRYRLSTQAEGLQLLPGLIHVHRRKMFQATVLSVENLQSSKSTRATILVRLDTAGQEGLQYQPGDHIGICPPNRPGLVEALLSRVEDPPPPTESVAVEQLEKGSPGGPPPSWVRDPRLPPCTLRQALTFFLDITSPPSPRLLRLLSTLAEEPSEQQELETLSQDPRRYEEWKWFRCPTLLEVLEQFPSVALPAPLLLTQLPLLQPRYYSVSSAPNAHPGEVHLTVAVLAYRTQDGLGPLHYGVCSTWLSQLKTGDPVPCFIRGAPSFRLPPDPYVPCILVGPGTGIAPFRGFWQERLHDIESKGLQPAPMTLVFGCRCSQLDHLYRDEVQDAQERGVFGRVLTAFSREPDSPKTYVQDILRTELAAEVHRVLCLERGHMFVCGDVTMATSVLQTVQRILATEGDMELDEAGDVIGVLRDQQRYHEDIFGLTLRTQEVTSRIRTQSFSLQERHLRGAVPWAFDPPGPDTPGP

Compound	pIC50 [1, 8]	pIC50 [2, 9]	Ratio of IC50 values E-cNOS/iNOS ([1]; index of selectivity)	other results
CCSC(=N)Nc1ccc(NC)c(CN)c1.Cl.Cl.Cl [Example 452, N-(5-(S-ethylisothioureido)-2-methylaminophenylmethyl)amine trihydrochloride]	5.16	5.44		Ratio of IC50 values E-cNOS/iNOS [1]: 0.5
CSC(=N)Nc1cccc(C(C)(C)N)c1.Cl.Cl [Example 5, N-(1-methyl-1-(3-(S-methylisothioureido)phenyl)ethyl)amine dihydrochloride]	6.35	6.37	1.0	
CSC(=N)Nc1cccc(CN)c1.Cl.Cl [Example 26, N-(3-(S-methylisothioureido)phenylmethyl)amine dihydrochloride]	5.87	6.37	0.3	
CSC(=N)Nc1ccc(CCN)cc1.Cl.Cl [Example 52, N-(4-(S-methylisothioureido)phenylethyl)amine dihydrochloride]	5.56	6.32	0.2	
CSC(=N)Nc1cccc(C(C)N)c1.Cl.Cl (centres unmarked) [Example 12, N-(1-(3-(S-methylisothioureido)phenyl)ethyl)amine dihydrochloride]	6.62	6.27		Ratio of IC50 values E-cNOS/iNOS [1]: 2.3; iNOS inhibitory potency compared with the existing NOS inhibitors (L-MIN) [1, 10]: more potent in inhibiting iNOS than L-MIN
CCOc1ccc(NC(=N)SCC)cc1CN.Cl.Cl [Example 324, N-(2-ethoxy-5-(S-ethylisothioureido)phenylmethyl) amine dihydrochloride]	5.06	5.64	0.3	
COC(=O)[C@@H](N)CCCNC(=N)N[N+](=O)[O-] [L-NAME, N^G-nitro-L-arginine methyl ester, reference compound]		6.03		infarct volume [3]: decreased significantly
N/N=C(\N)NCCC[C@H](N)C(=O)O [L-AA, N^G-amino-L-arginine, reference compound]				pIC50 [1]: 5.89; pIC50 [2]: 6.78
CCSC(=N)Nc1cccc(C(C)(C)N)c1.Cl.Cl [Example 96, N-(1-methyl-1-(3-(S-ethylisothioureido)phenyl)ethyl)amine dihydrochloride]	7.54	6.70	6.9	increase in the percentage of the water content (brain edema), dose dependence ([4]; bolus 0.12-3.6 μg/kg then infusion 0.01-0.3 μg/kg/min): reduced in a dose-dependent manner; percentage of the water content in the stroke hemisphere to the contralateral hemisphere ([4]; sustained infusion 0.3 μg/kg/min following intravenous bolus 3.6 μg/kg, p<0.01, control group about 103.8%): about 102.1%; infarction, dose dependence ([5]; 3-h MCA occlusion and 24-h reperfusion, bolus 0.12-3.6 μg/kg then infusion 0.01-0.3 μg/kg/min): ameliorated in a dose-dependent manner; decrease of infarct volume ([5]; rat, in vivo, iv): about 79.7%; iNOS inhibitory potency compared with the existing NOS inhibitors (L-MIN) [1, 10]: more potent in inhibiting iNOS than L-MIN; selectivity for iNOS compared to E-cNOS, compared with the existing NOS inhibitors (L-NIO) [1, 10]: more selective inhibitory effect on iNOS than L-NIO
CCN=C(N)Nc1cccc(CN)c1Cl.Cl.Cl [Example 538, N-(2-chloro-3-(N′-ethylguanidino)phenylmethyl)amine dihydrochloride]	6.51	5.59		Ratio of IC50 values E-cNOS/iNOS [1]: 8.3; selectivity for iNOS compared to E-cNOS, compared with the existing NOS inhibitors (L-NIO) [1]: more selective inhibitory effect on iNOS than L-NIO
CC(=N)NCCC[C@H](N)C(=O)O [L-NIO, NG-iminoethyl-L-ornithine, reference compound]				pIC50 ([1]; mean of one to four independent experiments, LPS-treated rat lung crude enzyme, read-out: IC50 value, iNOS (Type 2)): 6.34; pIC50 ([2]; mean of one to four independent experiments, CPAE cell crude enzyme, read-out: IC50 value, E-cNOS (Type 3)): 5.91
CCSC(=N)Nc1ccc(OC)c(C(C)(C)N)c1 [Example 350, N-(1-(5-(S-ethylisothioureido)-2-methoxyphenyl)-1-methylethyl)amine]	4.23	4.80	0.3	
CCSC(=N)Nc1cccc(CN)c1C.Cl.Cl [Example 131, N-(3-(S-ethylisothioureido)-2-methylphenylmethyl)amine dihydrochloride]	7.11	6.32		Ratio of IC50 values E-cNOS/iNOS [1]: 6.2; selectivity for iNOS compared to E-cNOS, compared with the existing NOS inhibitors (L-NIO) [1]: more selective inhibitory effect on iNOS than L-NIO; iNOS inhibitory potency compared with the existing NOS inhibitors (L-MIN) [1, 10]: more potent in inhibiting iNOS than L-MIN
CCN=C(N)Nc1ccc(N(C)C)c(CN)c1.Cl.Cl.Cl [Example 267, N-(2-dimethylamino-5-(N′-ethylguanidino)phenylmethyl)amine trihydrochloride]	5.32	4.30	10.5	selectivity for iNOS compared to E-cNOS, compared with the existing NOS inhibitors (L-NIO) [1, 10]: more selective inhibitory effect on iNOS than L-NIO
CCSC(=N)Nc1ccc(CCN)cc1.Cl.Cl [Example 104, N-(4-(S-ethylisothioureido)phenylethyl)amine dihydrochloride]	7.06	6.93	1.4	iNOS inhibitory potency compared with the existing NOS inhibitors (L-MIN) [1, 10]: more potent in inhibiting iNOS than L-MIN
CCSC(=N)Nc1ccc(OCc2ccccc2)c(CN)c1.Cl.Cl [Example 337, N-(2-benzyloxy-5-(S-ethylisothioureido)phenylmethyl)amine dihydrochloride]		5.28	0.3	
CCSC(=N)Nc1ccc(N(C)C)c(CN)c1.Cl.Cl.Cl [Example 270, N-(2-dimethylamino-5-(S-ethylisothioureido)phenylmethyl)amine trihydrochloride]	5.34	5.45	0.8	
CC(C)(N)c1cccc(NC(N)=N[N+](=O)[O-])c1.Cl [Example 7, N-(1-methyl-1-(3-(N′-nitroguanidino)phenyl)ethyl)amine hydrochloride]	5.67	7.37		Ratio of IC50 values E-cNOS/iNOS [1]: 0.02
CC(N)c1cccc(NC(N)=N[N+](=O)[O-])c1 (centres unmarked) [Example 14, N-(1-(3-(N′-nitroguanidino)phenyl)ethyl)amine hydrochloride]	5.43			
CCSC(N)=NCCC[C@H](N)C(=O)O [L-EIN, S-ethyl-L-thiocitrulline, reference compound]	5.17	6.14		
N=C(NCCC[C@H](N)C(=O)O)N[N+](=O)[O-] [L-NNA, N^G-nitro-L-arginine]				effects against brain edema and infarction [6]: ameliorative effects; effects against neuronal cell death [7]: ameliorative effects
N=C(Nc1ccc(CCN)cc1)N[N+](=O)[O-] [Example 54, N-(4-(N′-nitroguanidino)phenylethyl)amine]	5.30			
CCSC(=N)Nc1ccc(OC)c(CN)c1 [Example 122, N-(5-(S-ethylisothioureido)-2-methoxyphenylmethyl)amine dihydrochloride]	4.61	5.45		
CCC(N)c1cccc(NC(=N)SC)c1 (centres unmarked) [Example 19, N-(1-(3-(S-methylisothioureido)phenyl)propyl)amine dihydrochloride]	5.62			
